# Experiments:
# [1] = tested on: Pseudocercosporella herpotrichoides; test: in vivo activity against phytopathogenic fungi
# Plasmopara viticola = test: in vivo activity against phytopathogenic fungi
# [2] = tested on: Neurospora crassa strain SGF 18; test: modified screening method of detecting cell-wall active compounds; assay type: cell-based
# Protocol: Fermentation carried out for about 90 hours under submerged condition in shake flasks in order to achieve the maximum activity is particularly preferred. The progress of fermentation and the formation of Arthrichitin of the present invention can be detected by the modified screening method of detecting the cell-wall active compounds [J. Antibiotics, 39(11), 1620-1622, 1986] using the Neurospora crassa strain SGF 18.
# The production of Arthrichitin was monitored by using the modified screening method of detecting cell-wall active compounds [J. Antibiot., 39 (11), 1620-22, 1986] using the Neurospora crassa strain SGF 18 and growing it in a medium containing the following nutrients : soluble starch 1.5%; Yeast extract 0.4%; K2HPO4 0.1 %; MgSO4.7H2O 0.05%; D-Sorbitol 7.5% (Osmotic stabilizer); L-Sorbose 2.5% (Glucan synthesis inhibitor) and agar 1.5%.
# Pyricularia oryzae = conditions: in vivo
# Phytophthora infestans = conditions: in vivo
# [3] = solubility (physico-chemical properties); assay type: physicochemical
# Excerpt: The physico-chemical properties of Arthrichitin are as follows : Appearance : Colorless solid Solubility : Soluble in methanol and dimethylsulfoxide; insoluble in petroleum ether, chloroform, ethylacetate and water. Molecular weight : 642 (FAB MS) (Matrix : 3-nitrobenzyl alcohol) Molecular formula : C33H46N4O9 (calculated : […]; [observed : m/z 643.3341 (M + H)^+ (HR FAB-MS; matrix : MeOH/NBA; internal reference : polyethylene glycol 600); calculated for C33H47N4O9 : 643.3345] Melting point : 245°C [α]D : + 24.12°C (c 0.475, MeOH) HPLC retention time : 5.4 minutes [4 x (30 + 100) mm 10µ ODS ®Hypersil column; mobile phase : 35% acetonitrile in 0.02 M aqueous sodium phosphate buffer, pH 7.0; flow rate : 1 ml/min.; UV detection : 220 nm] UV λmax (MeOH) : 247, 266, 310 nm; no shift with acid and alkali IR (KBr) : Figure 1 ^1H NMR (300 MHz, DMSO-d6) : Figure 2 ^13C NMR (75 MHz, DMSO-d6) : Figure 3
# Erysiphe graminis = test: in vivo activity against phytopathogenic fungi
# Septoria nodorum = test: in vivo activity against phytopathogenic fungi
# Botrytis cinerea = test: in vivo activity against phytopathogenic fungi
compound,measurement,setting,value
CCCCCCCCC(C)C1OC(=O)C(CO)NC(=O)C(C(=O)c2c[nH]c3ccccc23)NC(=O)C(CCC(=O)O)NC(=O)C1C (centres unmarked) [Arthrichitin],activity against Pseudocercosporella herpotrichoides,[1],very good activity
same,activity against Plasmopara viticola,Plasmopara viticola,very good activity
same,activity as cell wall inhibiting compound,[2],activity as cell wall inhibiting compound
same,activity against Pyricularia oryzae,Pyricularia oryzae,very good activity
same,activity against Phytophthora infestans,Phytophthora infestans,very good activity
same,Solubility,[3]; chloroform,insoluble
same,Solubility,[3]; dimethylsulfoxide,Soluble
same,Solubility,[3]; ethylacetate,insoluble
same,Solubility,[3]; methanol,Soluble
same,Solubility,[3]; petroleum ether,insoluble
same,Solubility,[3]; water,insoluble
same,activity against Erysiphe graminis,Erysiphe graminis,very good activity
same,activity against Septoria nodorum,Septoria nodorum,very good activity
same,activity against Botrytis cinerea,Botrytis cinerea,very good activity

# Reference: patent EP0786471A1, “Arthrichitin, a process for its production and its use” (HOECHST AKTIENGESELLSCHAFT, priority 1996, dated 1997)
